The values that follow come from patent publication US7005124B2, “Dendritic-antineoplastic drug delivery system” (priority 1997, dated 2006).

Like-named read-outs stand apart in the source and are kept apart here.

The subject of one assay is Cor L23. Briefly: Cell cytotoxicity of dendrimer-platinate, MTT. It is filed as cell-based, human. Conditions: Pt-equiv. The protocol: (§1) All cellular growth and cytotoxic incubations were carried out in a cell incubator at 37° C. and 5% CO2 atmosphere.
(§2) Cell density was assessed using an improved neurenbrow hemocytometer (Sigma). The cells were washed with PBS twice and fresh RPMI media (supplemented with FCS) added, the cells were then seeded in a microtitre plate. The cells were left for 24 hours to recover and re-adhere. If cells were in a suspension they were spun at 1000×g and resuspended in fresh media.
(§3) Some cells were left in media only to act as cellular controls. The cells were left in the incubator for 72 hours, and checked occasionally for yeast or bacterial contamination. Five hours prior to the incubation time end point, at 67 hours, 20 μl of MTT was added and the cells left for the final 5 hours. Then cellular media was removed and 100 μl of optical grade DMSO (Sigma) was added and the MTT crystals dissolved.

In a further assay the test system is CCRF-CEM. Briefly: Cell cytotoxicity of dendrimer-platinate, MTT. Format: cell-based, human. Conditions: Pt-equiv. On the procedure: as §1, §2, §3
The next assay relates to L1210. Conditions: L1210 ip.
The test system of assay [1] is B16F10. Briefly: Activity against B16F10 I.P., I.P. injection. The conditions noted are these: dose 5 Pt-equiv mg/Kg, day 1. It is filed as in vivo, C57 mice.
Experimental: (§4) Alternatively drug was administered I.V. to mice bearing S.C. implanted B16F10 when the tumor reached palpable size (50–100 mm^2). Animal weight, tumor size and animal survival were monitored (UK guidelines for animal experiments involving neoplasia were followed.)
(§5) Li 210 or B16F10 cells were injected at a cell density into a mouse (DBA2 or C57 respectively, 25 g) at a cell density of 1×10^5 (0.9% saline solution) into the intraperitoneal (I.P. 100 μl) cavity. […] The mouse body weight and general toxicity was also monitored according to UK guidelines in the use of animals used in neoplasia studies. At the end point the gross morphology of the organs was noted.
Assay [2] relates to B16F10. Briefly: Cell cytotoxicity of dendrimer-platinate, MTT. Format: cell-based, murine. The conditions noted are these: Pt-equiv. On the procedure:
as §1, §2, §3

Experimental for L1210: as §4, §5

On to `N.N.[Cl][Pt][Cl]` [Cisplatin, cis-diamminedichloroplatinum], for which the entries for the “IC50 Values” in the assay with Cor L23, with CCRF-CEM and with B16F10 [2] were 1 µg/mL, 5 µg/mL and 9 µg/mL, respectively. Further, the T/C in the assay on L1210 (dose 2 Pt-equiv mg/Kg I.P. days 1, 2, 3) was 171; in the assay with L1210 (dose 3 Pt-equiv mg/Kg I.P. days 1, 2, 3), 64; in the assay with B16F10 [1], 89.
